Measurements from patent US10647664B2, “Substituted hydroxamic acid compounds” (Duke University, priority 2013, dated 2020).
In brackets after ≈: the same amount, converted by molar mass.

Experiments:
[1] = test system: wild-type E. coli (W3110); test: Minimum inhibitory concentration (MIC), E. coli W3110; assay type: cell-based; details: LB medium, 5% DMSO, 22 hours at 37° C., MTT; for MIC: Escherichia coli, 22 h
[2] = test system: P. aeruginosa PA01; test: MIC, P. aeruginosa PA01; assay type: cell-based; details: Pseudomonas aeruginosa
[3] = test system: F. novicida U112 (FNU112); test: microbe, parasite or virus in culture; assay type: cell-based; details: Francisella tularensis, read-out: MIC FNU112, F. novicida U112
[4] = test system: N. gonorrhoeae 35/02 (drug-resistant strain); details: N. gonorrhoeae strain 35/02; description of the strain's resistance; cited from earlier work
[5] = test system: V. cholera (P4); test: MIC, V. cholera (P4); assay type: cell-based; parameters: unit not given beside the values
Experimental: (§1) MICs are determined according to the NCCLS protocol using 96-well plates. Briefly, diluted bacterial cells (10^6 cells/mL) are added into each well of the 96-well plates containing LB medium with 5% DMSO and various concentrations of the compound of disclosure. After incubation of the plates for 22 hours at 37° C., [4,5-dimethylthiazol-2-yl]-2,5-diphenyltetrazolium bromide solution (MTT) is added (final concentration, 0.2 mg/mL) and incubated at 37° C. for another 3 hrs. MIC is determined as the lowest concentration of an antibiotic that prevented color change (yellow to purple).
(§2) Additional results of minimum inhibitory concentrations (MICs) using V. cholera (P4), S. typhimurium (LT2), and K. pneumonia (43816) are shown in Table 2

[6] = test system: S. typhimurium (LT2); test: MIC, S. typhimurium (LT2); assay type: cell-based
Experimental: as §1, §2

[7] = test system: K. pneumonia (43816); test: MIC, K. pneumonia (43816); assay type: cell-based
Experimental: as §1, §2

Molecule | MIC [1] | MIC ([2]; PA01) | MIC [3] | further results
C[C@@](O)(C(F)F)[C@H](NC(=O)c1ccc(C#Cc2ccc(CN3CCNCC3)cc2)cc1)C(=O)NO [Example 19] | > 1 µg/mL | > 5 µg/mL | 2.5 µg/mL (≈ 5.14 µM) | 
C[C@@](O)(C(F)F)[C@H](NC(=O)c1ccc(C#CC#CCN2CCOCC2)cc1)C(=O)NO [Example 21, N-((2S,3S)-4,4-difluoro-3-hydroxy-1-(hydroxyamino)-3-methyl-1-oxobutan-2-yl)-4-(5-morpholinopenta-1,3-diyn-1-yl)benzamide] | 0.46 µg/mL (≈ 1.06 µM) | 1.56 µg/mL (≈ 3.58 µM) | > 5 µg/mL | 
CO/N=C(\C(=O)N[C@@H]1C(=O)N2C(C(=O)O)=C(CSc3nc(=O)c(=O)[nH]n3C)CS[C@H]12)c1csc(N)n1 [ceftriaxone] |  |  |  | MIC [4]: 0.12 µg/mL (≈ 0.216 µM)
penicillin |  |  |  | MIC [4]: 6 µg/mL
CC(C#CC#Cc1ccc(C(=O)N[C@H](C(=O)NO)[C@](C)(O)C(F)F)cc1)N1CCOCC1 (stereo partly drawn) [Example 22, N-((2S,3S)-4,4-difluoro-3-hydroxy-1-(hydroxyamino)-3-methyl-1-oxobutan-2-yl)-4-(5-morpholinohexa-1,3-diyn-1-yl)benzamide] | > 1 µg/mL | 5 µg/mL (≈ 11.1 µM) | > 5 µg/mL | 
C[C@@](O)(C(F)F)[C@H](NCCCc1ccc(C#Cc2ccccc2)cc1)C(=O)NO [Example 3, (2S,3S)-4,4-difluoro-N,3-dihydroxy-3-methyl-2-((3-(4-(phenylethynyl)phenyl)propyl)amino)butanamide] | 1.6 µg/mL (≈ 3.98 µM) |  |  | 
CC(NC(=O)c1ccc(C#Cc2ccc(CN3CCOCC3)cc2)cc1)(C(=O)NO)C(C)(O)C(F)F (centres unmarked) [Example 2, N-(4,4-difluoro-3-hydroxy-1-(hydroxyamino)-2,3-dimethyl-1-oxobutan-2-yl)-4-((4-(morpholinomethyl)phenyl)ethynyl)benzamide] | 6.25 µg/mL (≈ 12.5 µM) |  | 50 µg/mL (≈ 99.7 µM) | 
C[C@@H](O)[C@](C)(NC(=O)c1ccc(C#CC#Cc2ccc(N)cc2)cc1)C(=O)NO [Example 1, 4-((4-aminophenyl)buta-1,3-diynyl)-N-(3-hydroxy-1-(hydroxyamino)-2-methyl-1-oxobutan-2-yl)benzamide] | 0.18 µg/mL (≈ 0.46 µM) | 15 µg/mL (≈ 38.3 µM) |  | MIC E. coli W3110 [1]: 0.13 µg/mL (≈ 0.332 µM); MIC ([2]; PA01, P. aeruginosa PA01): 6.25 µg/mL (≈ 16 µM); MIC V. cholera (P4) [5]: 0.03; MIC S. typhimurium (LT2) [6]: 0.144; MIC K. pneumonia (43816) [7]: 0.6
CC(CCn1ccc(C#Cc2ccccc2)cc1=O)(C(=O)NO)S(C)(=O)=O (centres unmarked) [Example 30, N-hydroxy-2-methyl-2-(methylsulfonyl)-4-(2-oxo-4-(phenylethynyl)pyridin-1 (2H)-yl)butanamide] | < 0.78 µg/mL | < 0.78 µg/mL |  | 
